system: antigen-specific CD8+ T cells; test: High-dimensional phenotypic profiling of antigen-specific CD8+ T cells (t-SNE, Phenograph, One-SENSE, Scorpius); format: cell-based, human; conditions: ex vivo
Description: Validated antigen-specific CD8+ T cells were exported individually from each donor for dimensionality reduction analysis. Detailed methodology for t-SNE and One-SENSE can be found elsewhere. Briefly, t-SNE and One-SENSE were performed using custom R scripts based on “flowCore” and “Rtsne” packages downloaded from The Comprehensive R Archive Network (CRAN). All data were transformed using the “logicleTransform” function and w=0.25, t=16409, m=4.5, a=0 as input parameters to roughly match scaling historically used in FlowJo. Cellular markers analyzed by t-SNE and One-SENSE were indicated (table S2). For One-SENSE, cellular markers in each T cell category (“Differentiation+TNFR”, “Exhaustion” and “Trafficking”) were subjectively assigned for categorical analysis. Aligned heatplots represent the distribution of marker positive cells in percentage on each “bin” on the axis (category) constructed by cells residing in small ranges of values. Positive population of markers was manually defined and markers of the same category were combined for each dimension using 250 bins.
Logistic regression was performed using the drc R package (v 3.0.1) using a 3-parameters logistic model.

| Substance | phenotype of tetramer-stained epitope-specific CD8+ T cells |
| --- | --- |
| HBV-C-195v2: HBV core epitope, cluster 283, 1 unique peptide (RSQSPRRRRSK; Hepatitis B virus) | mostly naïve-like phenotype |

system: HLA-A*11:01-restricted antigen-specific CD8+ T cells in patient's PBMC; test: Highly multiplexed combinatorial pMHC tetramer staining with mass cytometry (epitope mapping, frequency of antigen-specific CD8+ T cells); conditions: Acute resolved (R) patients; patients with detected tetramer+ CD8+ T cells (frequency > 0.002%) / patients in the group; per epitope cluster

| Substance | Hits (Freq > 0.002%) R |
| --- | --- |
| HTLWKAGILYK | 2/12 |
| KTAYSHLSTSK | 7/12 |
| LSYLHFRK | 2/12 |
| LVFQTSER | 1/12 |
| NLNVSIPWTHK | 1/12 |
| PSFPHIHLK | 1/12 |
| QSSGILSR | 1/12 |
| QTSERHGDK | 1/12 |
| STNRQSGRK | 1/12 |
| STVPCFNPK | 1/12 |
| TTSTGPCK | 1/12 |
| TVSAISSILSK | 1/12 |
| VTKYLPLDK | 2/12 |

same assay, conditions: Immune Active (IA) CHB patients; patients with detected tetramer+ CD8+ T cells (frequency > 0.002%) / patients in the group; per epitope cluster

| Substance | Hits (Freq > 0.002%) IA |
| --- | --- |
| GILPRSSVGPR | 1/12 |
| HTLWKAGILYK | 4/12 |
| LQAGFFLLTK | 1/12 |
| LSYLHFRK | 4/12 |
| LTINENRRLK | 1/12 |
| NLNVSIPWTHK | 8/12 |
| STFHQALLDPR | 1/12 |
| STISSILSK | 1/12 |
| STNRQSGRK | 7/12 |
| TSMFPSCCCTK | 2/12 |
| TTSTGPCK | 1/12 |
| TVNETRRLK | 2/12 |
| TVNHYFQTR | 4/12 |
| TVSAISSILSK | 2/12 |
| VSAISSILSK | 1/12 |

same assay, conditions: Immune Active (IA) patients; donors with tetramer+ CD8+ T cell frequency > 0.002% / donors tested

| Substance | Hits (Freq > 0.002%) IA |
| --- | --- |
| AVVRRRCRSPR | 6/12 |
| GSTHVSWPK | 1/12 |
| IVQKIKMCFRK | 1/12 |
| LLYKTFGRK | 5/12 |
| LSLGIHLNPNK | 3/12 |
| LVVDFSQFSR | 9/12 |
| LVYRPTTGR | 1/12 |
| PTYKAFLSK | 2/12 |
| QVLPKVLHK | 1/12 |
| RGNTRVSWPK | 2/12 |
| RIINNQHR | 1/12 |
| RVTGGVFLVDK | 1/12 |
| STLPETAVVRR | 4/12 |
| SVVRRAFPH | 3/12 |
| TVNAHQVLPK | 3/13 |
| VTGGVFLVDK | 1/12 |
| YVSLLLLYK | 2/12 |

same assay, conditions: Immune Tolerant (IT) CHB patients; patients with detected tetramer+ CD8+ T cells (frequency > 0.002%) / patients in the group; per epitope cluster

| Substance | Hits (Freq > 0.002%) IT |
| --- | --- |
| GSCIQSQLRK | 1/8 |
| HTLWKAGILYK | 1/8 |
| KTAYSHLSTSK | 8/8 |
| LSYLHFRK | 3/8 |
| NLNVSIPWTHK | 4/8 |
| PSFPHIHLK | 1/8 |
| STNRQSGRK | 5/8 |
| TSMFPSCCCTK | 1/8 |
| TVNETRRLK | 1/8 |
| TVNHYFQTR | 5/8 |
| TVSAISSILSK | 1/8 |
| VTKYLPLDK | 1/8 |

same assay, conditions: Immune Tolerant (IT) patients; donors with tetramer+ CD8+ T cell frequency > 0.002% / donors tested

| Substance | Hits (Freq > 0.002%) IT |
| --- | --- |
| AVVRRRCRSPR | 3/8 |
| GSTHVSWPK | 1/8 |
| IVQKIKMCFRK | 1/8 |
| KIKMCFRK | 2/8 |
| KTYGRKLHLY | 1/8 |
| LLYKTFGRK | 4/8 |
| LVVDFSQFSR | 5/8 |
| PTYKAFLSK | 1/8 |
| RGNTRVSWPK | 1/8 |
| STQVSWPK | 2/8 |
| SVVRRAFPH | 1/8 |
| TVNAHQVLPK | 1/12 |
| YVSLLLLYK | 2/8 |

same assay, conditions: Immune Tolerant (IT) patients; mean frequency of antigen-specific CD8+ T cells among hits

| Substance | Average of hits (%) IT |
| --- | --- |
| KTYGRKLHLY | 0.002007% |

same assay, conditions: Inactive Carrier (InA) CHB patients; patients with detected tetramer+ CD8+ T cells (frequency > 0.002%) / patients in the group; per epitope cluster

| Substance | Hits (Freq > 0.002%) InA |
| --- | --- |
| AGFFLLTK | 1/13 |
| GILPRSSVGPR | 3/13 |
| HTLWKAGILYK | 1/13 |
| LSYLHFRK | 1/13 |
| LVFQTSER | 1/13 |
| NLNVSIPWTHK | 3/13 |
| QQGSMASGK | 1/13 |
| QTSERHGDK | 1/13 |
| SSCLHQPAVRK | 1/12 |
| STISSILSK | 1/13 |
| STNRQSGRK | 4/13 |
| TSMFPSCCCTK | 1/13 |
| TVNETRRLK | 2/13 |
| TVNHYFQTR | 5/13 |
| TVPCFNPK | 1/13 |
| VTKYLPLDK | 3/13 |

same assay, conditions: Inactive Carrier (InA) patients; donors with tetramer+ CD8+ T cell frequency > 0.002% / donors tested

| Substance | Hits (Freq > 0.002%) InA |
| --- | --- |
| AVVRRRCRSPR | 2/13 |
| LLYKTFGRK | 5/13 |
| LSLGIHLNPNK | 1/13 |
| LVVDFSQFSR | 9/13 |
| LVYRPTTGR | 1/13 |
| MLLYKTYGRK | 1/13 |
| PTYKAFLSK | 2/13 |
| RGNTRVSWPK | 1/13 |
| SSAGPCALR | 2/13 |
| SSARSQSER | 1/13 |
| STLPETAVVRR | 7/13 |
| SVVRRAFPH | 2/13 |
| YVSLLLLYK | 3/13 |

same assay, conditions: acute resolved (R) patients; donors with tetramer+ CD8+ T cell frequency > 0.002% / donors tested

| Substance | Hits (Freq > 0.002%) R |
| --- | --- |
| AVVRRRCRSPR | 1/12 |
| GTLPQEHIVLK | 1/12 |
| IVQKIKMCFRK | 2/12 |
| KIKMCFRK | 1/12 |
| LLYKTFGRK | 1/12 |
| LVVDFSQFSR | 9/12 |
| PTYKAFLSK | 1/12 |
| RGNTRVSWPK | 1/12 |
| RIINNQHR | 1/12 |
| STLPETAVVRR | 9/12 |
| STQVSWPK | 1/12 |
| TVNAHQVLPK | 2/12 |
| VSLMLLYK | 1/12 |
| YVSLLLLYK | 1/12 |

same assay, conditions: ex vivo PBMC; groups IT, IA, InA, R, HD, CB

| Substance | detection / frequency of epitope-specific CD8+ T cells across patient groups |
| --- | --- |
| HBV-C-195v2: HBV core epitope, cluster 283, 1 unique peptide (RSQSPRRRRSK; Hepatitis B virus) | highest frequencies observed |

same assay, conditions: patients with detected epitope-specific CD8+ T cells / patients tested; Immune Active (IA) group; Freq > 0.002%

| Substance | Hits (Freq > 0.002%) IA |
| --- | --- |
| ATVLMGLGK | 1/12 |
| ATVQGQNLK | 2/12 |
| GTSGSPIVNR | 4/12 |
| KTFVDLMRR | 1/12 |
| KVFVLGGCRHK | 1/12 |
| MATYGWNLVK | 1/12 |
| MSMTDLEAYFK | 1/12 |
| MVSRLLLNR | 1/12 |
| RTQSPRRRR | 6/12 |
| RTTWSIHAK | 5/12 |
| SFSFGGFTFK | 2/12 |
| SQIGAGVYK | 3/12 |
| SVQPTFSVQR | 3/12 |
| SVQRNLPFER | 4/12 |
| TTDLEAYFK | 1/12 |
| TTKRDLGMSK | 2/12 |
| YVNVNMGLK | 1/12 |

same assay, conditions: patients with detected epitope-specific CD8+ T cells / patients tested; Immune Tolerant (IT) group; Freq > 0.002%

| Substance | Hits (Freq > 0.002%) IT |
| --- | --- |
| ASCMGLIYNR | 1/8 |
| ATVLMGLGK | 1/8 |
| ATVQGQNLK | 3/8 |
| GTSGSPIVNR | 5/8 |
| KVFVLGGCRHK | 1/8 |
| RSQSPRRRRSK | 8/8 |
| RTQSPRRRR | 1/8 |
| RTTWSIHAK | 2/8 |
| SQIGAGVYK | 1/8 |
| SSCSSCPLSK | 6/8 |
| SVQPTFSVQR | 2/8 |
| SVQRNLPFER | 4/8 |
| TSGSPIIDK | 1/8 |
| TTKRDLGMSK | 1/8 |
| TVMDIISRR | 2/8 |

same assay, conditions: patients with detected epitope-specific CD8+ T cells / patients tested; Inactive Carrier (InA) group; Freq > 0.002%

| Substance | Hits (Freq > 0.002%) InA |
| --- | --- |
| AMGDAGGYK | 1/13 |
| ASCMGLIYNR | 1/13 |
| ATVLMGLGK | 1/13 |
| ATVQGQNLK | 9/13 |
| CSCPTVQASK | 2/13 |
| GTSGSPIVNR | 4/13 |
| GVWIRTPPAYR | 1/13 |
| KLVGINMSKK | 1/13 |
| KSGAIKVLK | 1/13 |
| LTFGRETVLE | 1/13 |
| MATYGWNLVK | 1/13 |
| RSQSPRRRRSK | 6/13 |
| RTQSPRRRR | 5/13 |
| RTTWSIHAK | 3/13 |
| SFSFGGFTFK | 2/13 |
| SQIGAGVYK | 2/13 |
| SVLGPISGHVLK | 2/13 |
| SVQPTFSVQR | 4/13 |
| SVQRNLPFER | 6/13 |
| TTDLEAYFK | 3/13 |

same assay, conditions: patients with detected epitope-specific CD8+ T cells / patients tested; acute resolved (R) group; Freq > 0.002%

| Substance | Hits (Freq > 0.002%) R |
| --- | --- |
| ASCMGLIYNR | 1/12 |
| ATVQGQNLK | 4/12 |
| GTSGSPIVNR | 4/12 |
| KTFDSEYVK | 1/12 |
| KVFVLGGCRHK | 2/12 |
| LTFGRETVLE | 1/12 |
| MSMTDLEAYFK | 1/12 |
| RSQSPRRRRSK | 6/12 |
| RTQSPRRRR | 2/12 |
| RTTWSIHAK | 3/12 |
| SFSFGGFTFK | 1/12 |
| SQIGAGVYK | 1/12 |
| SSCSSCPLSK | 8/12 |
| SVQPTFSVQR | 1/12 |
| SVQRNLPFER | 3/12 |
| TTDLEAYFK | 1/12 |
| TVRAFSRAYHHRINR | 1/12 |
| YVNVNMGLK | 1/12 |
